In the assay the test system is A/Brisbane/59/2007 H1N1 Oseltamivir-Resistant NA. In kind it is biochemical, influenza A/Brisbane/59/2007 H1N1 Oseltamivir-Resistant. Conditions: pH 7.6.

As a reminder, the Km is the concentration of substrate that gives half-maximal velocity. Broadly, the kcat is the maximal rate divided by the concentration of active sites.

For `CC(=O)NC1C(NC(=N)N)C(F)C(Oc2c(F)cc3c(C)cc(=O)oc3c2F)(C(=O)O)OC1[C@H](O)[C@H](O)CO` (stereo partly drawn) [compound 3, 5-Acetamido-4-guanidine-3-fluoro-3,4,5-trideoxy-2α-(4-methyl-6,8-difluoromethylumbelliferyl)-D-glycero-D-galactononulopyranosylnoic acid], the Km is 41.6 µM and the kcat was determined as 35.7 s⁻¹.

Values taken from patent US11639348B2, “Compositions and methods for neuraminidase detection and quantification” (priority 2018, dated 2023).
